Source: ChEMBL document CHEMBL5154820 (Eur J Med Chem, 2022)

Experiments:
[1] = Toxicity against BABL/c mouse assessed as morphological changes in kidney at 30 mg/kg, ip administered daily for 21 days followed by addition of 3 mg/kg DDP for every 2 days by H and E staining method; assay type: organism-based; details: in vivo, 504 h, time 21 day
[2] = Acute toxicity against ICR mouse assessed as focal necrosis in liver at 1000 mg/kg, ip measured after 14 days by H and E staining method; assay type: organism-based; details: in vivo, 336 h, time 14 day
[3] = target: Tubulin beta (Homo sapiens) (UniProt P68371+Q9H4B7+Q13509+P04350+Q3ZCM7+P07437+Q13885+Q9BVA1+Q9BUF5+A6NNZ2); assay: Binding affinity to beta-tubulin colchicine binding site in human HeLa cells assessed as decrease of adduct formation by measuring gray value measured at 50 uM incubated for 2 hrs followed by addition of EBI measured after 1.5 hrs by EBI competition based Western blotting analysis; assay type: cell-based; details: time 3.5 hrs
[4] = Apparent volume of distribution during terminal phase in C57 nude mouse at 30 mg/kg, ip measured at 0.083 to 24 hrs by LC/MS/MS analysis; assay type: ADME, organism-based; details: in vivo, time 0.083-24 hrs, read-out: Vz/F
HeLa [5] = assay: Induction of cell cycle arrest in human HeLa cells assessed as S-phase at 0.1 uM measured after 24 hrs by propidium iodide staining based flow cytometric analysis analysis ( Rvb = 15.5%); assay type: functional
HeLa [6] = assay: Induction of apoptosis in human HeLa cells assessed as viable cells at 0.4 uM measured after 24 hrs by Annexin V-FITC/7-AAD staining based flow cytometric analysis (reference value: 70.1%); assay type: functional; details: read-out: Activity
[7] = Resistant factor, ratio of IC50 for antiproliferative activity against human SiHa/DDP cells to IC50 for human SiHa cells; assay type: functional
HeLa [8] = assay: Induction of cell cycle arrest in human HeLa cells assessed as accumulation of cells at G2/M phase at 0.4 uM after 24 hrs by propidium iodide staining based flow cytometric analysis (reference value: 20.3%); assay type: functional
[9] = Toxicity against BABL/c mouse assessed as morphological changes in lung at 30 to 60 mg/kg, ip administered daily for 21 days by H and E staining method; assay type: organism-based; details: in vivo, 504 h, dose 30-60 mg/kg, time 21 day
[10] = Acute toxicity in ICR male mouse assessed as body weight gain at 100 to 1000 mg/kg, ip measured daily for 14 days; assay type: organism-based; details: in vivo, 336 h, dose 100-1000 mg/kg, time 14 day
[11] = Acute toxicity against ICR mouse assessed as chronic progressive nephropathy in kidney at 1000 mg/kg, ip measured after 14 days by H and E staining method; assay type: organism-based; details: in vivo, 336 h, time 14 day
[12] = Nephrotoxicity in BABL/c mouse assessed as increased uric acid level at 30 mg/kg, ip administered daily for 21 days followed by addition of 3 mg/kg DDP for every 2 days relative to vehicle; assay type: toxicity, organism-based; details: in vivo, 504 h, time 21 day
[13] = Acute toxicity against ICR mouse assessed as inflammatory cell infiltration in liver at 1000 mg/kg, ip measured after 14 days by H and E staining method; assay type: organism-based; details: in vivo, 336 h, time 14 day
HeLa [14] = assay: Induction of cell cycle arrest in human HeLa cells assessed as 2N cells at 3 nM measured after 24 hrs by propidium iodide staining based flow cytometric analysis analysis ( Rvb = 41.7%); assay type: functional
HeLa [15] = assay: Antimigratory activity against human HeLa cells at 3 nM measured after 24 hrs by scratch wound healing based fluorescence inverted microscopic analysis; assay type: functional
HeLa [16] = assay: Induction of cell cycle arrest in human HeLa cells assessed as 4N cells at 3 nM measured after 24 hrs by propidium iodide staining based flow cytometric analysis analysis ( Rvb = 17.1%); assay type: functional
HeLa [17] = assay: Inhibition of colony formation in human HeLa cells at 6 nM and treated for every 48 hrs with fresh medium measured after 14 days by crystal violet staining method; assay type: functional; design: scale not given: the % may be the effect or the level left; details: time 14 day
HeLa [18] = assay: Induction of cell cycle arrest in human HeLa cells assessed as 2N cells at 1.5 nM measured after 24 hrs by propidium iodide staining based flow cytometric analysis analysis ( Rvb = 41.7%); assay type: functional

Row | Structure (SMILES) | Activity [1] | Activity [2] | Activity [3] | Vd/F [4] | Activity (HeLa [5]) | viability at 0.4 µM (HeLa [6]) | Ratio IC50 [7] | Activity (HeLa [8]) | Activity [9] | Activity [10] | Activity [11] | Activity [12] | Activity [13] | Activity (HeLa [14]) | Activity (HeLa [15]) | Activity (HeLa [16]) | Activity (HeLa [17]) | Activity (HeLa [18])
1 | CCOc1ccc(-c2cncnc2-c2cc(OC)c(OC)c(OC)c2)cc1Cl | Non-Toxic | Non-Toxic | 1.51 | 11.3 L/kg | 13% | 11.5% | 41.9 | 71.7% | Non-Toxic | 8.1 g | Non-Toxic | 16% | Non-Toxic | – | – | – | – | –
2 | COc1ccc(/C=C\c2cc(OC)c(OC)c(OC)c2)cc1O [COMBRETASTATIN A4] | – | – | – | – | – | – | – | – | – | – | – | – | – | 24.9% | 57% | 28.2% | 100% | 43.1%
